PubChem BioAssay (NCI)
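Grown in 96-well plates, cells were treated for 48 hours with each compound at five concentrations. Insufficient inhibition: endpoint recorded as highest concentration tested. GI50: concentration for 50% inhibition of growth. TGI denotes the concentration required for complete inhibition of growth.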

What was measured:
Assay in all cases: inhibition of tumour cell growth, NCI panel, 48 h
[1] = tested on: A498 renal
[2] = tested on: DU-145 prostate
[3] = tested on: HCT-15 colon
[4] = tested on: HL-60(TB) leukemia
[5] = tested on: NCI/ADR-RES ovarian
[6] = tested on: RPMI-8226 leukemia
[7] = tested on: SF-295 CNS
[8] = tested on: SF-539 CNS
[9] = tested on: SNB-75 CNS
[10] = tested on: T-47D breast

| Structure (SMILES) | GI50 [1] [µM] | TGI [1] [µM] | GI50 [2] [µM] | TGI [2] [µM] | GI50 [3] [µM] | TGI [3] [µM] | GI50 [4] [µM] | TGI [4] [µM] | GI50 [5] [µM] | TGI [5] [µM] | GI50 [6] [µM] | TGI [6] [µM] | GI50 [7] [µM] | TGI [7] [µM] | GI50 [8] [µM] | TGI [8] [µM] | GI50 [9] [µM] | TGI [9] [µM] | GI50 [10] [µM] | TGI [10] [µM] |
| --- | --- | --- | --- | --- | --- | --- | --- | --- | --- | --- | --- | --- | --- | --- | --- | --- | --- | --- | --- | --- |
| CC(=O)OC1CCC2(C)C(=CCC3C4CC(CN5CC5)C(=O)C4(C)CCC32)C1 (stereo not given) | 11.4 | 24.9 | 8.29 | 20.4 | 2.27 | 5.62 | 4.12 | 16.8 | 16 | 41.5 | 1 | 6.28 | 22 | > 55.4 | 13.5 | 26.9 | 10.8 | 22.7 | 0.914 | 2.7 |
| O=C(NCc1cccnc1)c1ccc([N+](=O)[O-])o1 | 3.25 | 9.02 | 1.11 | 4.11 | 0.647 | 1.76 | 8.44 | 25 | 1.66 | 23.9 | 4.72 | > 32.5 | 2.48 | 7.14 | 1.12 | 3.76 | 1.18 | 7.24 | 6.9 | 32.4 |
| CCn1c(SC)nnc1-c1cc2c([nH]c3ccccc32)c(-c2cccc(O)c2)n1 | 1.42 | 10.9 | 4.46 | 24.9 | 0.95 | 51.6 | 0.929 | 7.86 | 3.71 | 36.1 | 1.58 | 10.2 | 1.83 | 5.23 | 1.46 | 3.74 | 1.3 | 3.94 | 1.78 | 22.5 |
| Cc1c(-c2ccc(N3CCc4cccc(C(=O)Nc5nc6ccccc6s5)c4C3)nc2C(=O)O)cnn1CC12CC3CC(CC(C3)C1)C2 | < 0.01 | < 0.0127 | 15.2 | 29.1 | 6.08 | 19.9 | 3.43 | 18.7 | 14.7 | 38 | < 0.0177 | 2.86 | 3.53 | 11.6 | 6.51 | 21.8 | 9.35 | 36.8 | 6.59 | 30.7 |
| COC(=O)/C(=C/c1ccc(OC)cc1)c1cc(OC)c(OC)c(OC)c1 |  | > 39 |  | 8.56 |  | > 100 |  | 3.06 |  | > 100 |  | 69.5 |  | 8.02 |  | 6.96 |  | 5.77 |  | > 100 |
| CN1CCN(Cc2ccc(NC(=O)c3cncc(C#Cc4cnc5cccnn45)c3)cc2C(F)(F)F)CC1 | 0.907 | 1.86 | 1.54 | 5.34 | 1.47 | 5.3 | 0.818 | 2.44 | 1.83 | 8.1 | 1.11 | 3.05 | 1.49 | 5.42 | 0.558 | 1.33 | 0.914 | 1.88 | 2.2 | 11.9 |
